Laboratory results from article PMC3690454, “14-3-3 Proteins Interact with a Hybrid Prenyl-Phosphorylation Motif to Inhibit G Proteins” (Cell, 2013).
Square brackets hold non-standard residues; d marks the D form. Ends that are not written are not given here. Peptide text beside a SMILES is read from it. pS = N[C@@H](COP(=O)(O)O)C(=O)O

What was measured:
14-3-3ζ [1] = target: T1, 14-3-3ζ (Homo sapiens, UniProt P63104); assay: Biolayer interferometry (Octet RED96), immobilised biotinylated peptides, 14-3-3ζ in solution; format: binding; settings: determined by steady-state analysis, typical experiment (n ≥ 3)
T1 construct: hexa-His; made in house; host or cells: E. coli BL21(DE3) Star
T1 sequence (P63104 1-245): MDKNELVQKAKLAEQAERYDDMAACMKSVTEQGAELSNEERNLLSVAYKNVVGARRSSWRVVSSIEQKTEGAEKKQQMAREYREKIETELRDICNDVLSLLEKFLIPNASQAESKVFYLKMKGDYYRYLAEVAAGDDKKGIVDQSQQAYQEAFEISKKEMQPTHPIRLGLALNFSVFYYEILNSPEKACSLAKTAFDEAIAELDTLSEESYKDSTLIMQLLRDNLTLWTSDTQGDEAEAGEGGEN
Protocol: Biolayer interferometry was carried out using an Octet RED96 instrument (ForteBio). Biotinylated peptides were immobilized on streptavadin-coated biosensors (ForteBio) at a concentration of 1 μg/ml in BI buffer (25 mM Tris, 150 mM NaCl, 0.1% Tween-20), for 300 s. The immobilization typically reached a response level of 2 nm. Association and dissociation curves were obtained through addition of a dilution series of 14-3-3ζ ([…]) for 300 s followed by dissociation in BI buffer for 300 s using the Octet acquisition software. The binding data were fitted using the Octet analysis software.

[2] = system: GST-14-3-3β / Rnd3 interaction; assay: Peptide competition in GST-14-3-3β pull-down of FLAG-Rnd3 from COS7 lysates; format: binding; settings: peptide 10 μg/ml preincubated 15 min at 4°C with GST-14-3-3β; immunoblot
Protocol: Recombinant GST-14-3-3β was expressed and purified from E. coli (Extended Experimental Procedures). FLAG-Rnd3-transfected COS7 cells were lysed in LB buffer. After removal of insoluble material, precleared cell lysates were incubated at 4°C for 2 hr with the recombinant GST or GST-14-3-3β protein (5 μg) on glutathione beads (Amersham Biosciences). Beads were washed with LB buffer before eluting the proteins in LSB. The proteins were resolved by SDS-PAGE and analyzed by immunoblotting.
For peptide competition experiments (Table S3; Extended Experimental Procedures), peptides (10 μg/ml) were preincubated for 15 min at 4°C with the GST-14-3-3β prior to the addition of precleared cell lysates.

14-3-3ζ [3] = target: T1, 14-3-3ζ; assay: Isothermal titration calorimetry of Rnd3 C-terminal peptides with 14-3-3ζ; format: binding; settings: ITC
Protocol: ITC measurements were carried out using a VP-ITC200 instrument (GE Healthcare). The 14-3-3ζ domain (see Extended Experimental Procedures) was used at 50–60 μM in ITC buffer (50 mM Tris [pH 7.5]), 100 mM NaCl, 1 mM TCEP). Rnd3 C-terminal peptides were solubilized in ITC buffer and used at 500–600 μM. Titrations were carried out at 25°C in triplicate. Each titration was fitted to a simple one-site binding model using the Origin software provided with the instrument. Titrations with nonbinding peptides were carried out at 15°C and 25°C.
GST-14-3-3β protein was expressed as previously reported ([Yaffe et al., 1997]). A hexa-His-tagged version of 14-3-3ζ was expressed and purified essentially as previously reported ([Kostelecky et al., 2009]). In brief, the E. coli strain BL21(DE3) Star (Invitrogen) was transformed with the expression plasmid that was maintained by 34 μg/ml chloramphenicol. E. coli cells were grown to OD600nm of 0.7-0.8 in TB medium at 37°C and protein expression induced by 1 mM IPTG for 5 hr at 30°C. Pelleted cells were suspended in buffer A (25 mM Tris [pH 7.5], 100 mM NaCl, 1 mM EDTA, and 1 mM DTT) and disrupted by sonication. Insoluble material was cleared by high-speed centrifugation and the cleared lysate applied to a 5 ml HisTrap column using an AKTA system (GE Healthcare). The 14-3-3ζ protein was eluted with a linear gradient (0–500 mM) of Imidazole in buffer A. Finally, the protein was subjected to size-exclusion chromatography using a High-Load S200 pg column. As previously described, 14-3-3ζ eluted as a dimer with a molecular weight of ∼60 kDa. The final yield of 14-3-3ζ was 30–40 mg per liter of TB medium.

Rnd3/14-3-3 interaction = assay: Co-immunoprecipitation of Rnd3 with 14-3-3 proteins from treated COS7 cells; format: cell-based; settings: staurosporine 100 nM 2 hr, calyculin A 100 nM 20 min, FTI (L-744,832) 10 μM 16 hr, immunoblot
Protocol: (§1) COS7 cells grown in Dulbecco’s modified Eagle’s medium (DMEM) containing 10% bovine fetal calf serum and penicillin/streptomycin (Invitrogen) were electroporated with 5 μg DNA at 250 V and 960 μF using 0.4 cm Gene Pulser Cuvettes (Bio-Rad) in 250 μl of electroporation buffer (120 mM KCl, 10 mM K2PO4/KH2PO4 [pH 7.6], 25 mM HEPES [pH 7.6], 2 mM MgCl2, and 0.5% Ficoll). Cells were analyzed 24 hr after transfection. NIH 3T3 cells grown in DMEM containing 10% donor bovine serum and penicillin/streptomycin were transfected using FuGENE 6 (Roche) according to the manufacturer’s instructions. Where indicated, cells were treated for 20 min with 100 nM calyculin A (Alexis); for 2 hr with 100 nM staurosporine (Calbiochem), 20 μM H-1152 (Calbiochem), 1 μM bisindolylmaleimide I (BIM1, Calbiochem), or 100 nM phorbol-12-myristate-13-acetate (PMA, Cell Signaling Technology); and for 16 hr with 10 μM L-744,832 farnesyltransferase inhibitor (FTI, Calbiochem).
Transfected COS7 cells were lysed in lysis buffer LB (1% Triton X-100, 20 mM Tris–HCl [pH 8], 130 mM NaCl, 1 mM dithiothreitol [DTT], 10 mM sodium fluoride, complete EDTA-free protease inhibitor cocktail [Roche], phosphatase inhibitor cocktails [set II+IV, Calbiochem]). After centrifugation (13,000 g, 4°C, 10 min), soluble proteins were precleared then incubated with either mouse nonimmune IgG as a control, mouse anti-HA (HA-7) or mouse anti-FLAG (M2) antibody on agarose beads (Sigma-Aldrich) for 2 hr at 4°C. Beads were washed five times with lysis buffer (containing 260 mM NaCl), then bound proteins were eluted in Laemmli sample buffer (LSB), resolved by SDS–PAGE and analyzed by immunoblotting.

pS210-Rnd3 = pS210-Rnd3 immunoblot in treated COS7 cells; format: cell-based; settings: 2 hr, PMA 100 nM, BIM1 1 μM
Protocol: as §1
Rabbit polyclonal antisera were raised against phosphorylated Rnd3-S210 peptide (KNVKRNKpSQRA) by Eurogentec, Seraing, Belgium. Nonspecific antibodies were removed through a nonphosphopeptide (KNVKRNKSQRA) column followed by a specific phosphoenrichment of the antibodies by affinity purification using a phosphopeptide column. […]

[4] = target: biotinylated Rnd3 C-terminal peptide, phosphorylated on S240 and geranylgeranylated (+P+GG) (human); assay: BLI; Octet RED96; biotinylated peptides immobilised on streptavidin biosensors; dilution series of 14-3-3ζ; 25 mM Tris, 150 mM NaCl, 0.1% Tween-20; KD of +P-F by steady-state analysis
[5] = target: biotinylated Rnd3 C-terminal peptide, phosphorylated on S240 (+P−F) (human); assay: as above
[6] = target: biotinylated Rnd3 C-terminal peptide, phosphorylated on S240 and geranylated (+P+G) (human); assay: as above
[7] = target: biotinylated Rnd3 C-terminal peptide, phosphorylated on S240 and farnesylated on C241 (+P+F) (human); assay: as above
[8] = target: biotinylated Rnd3 C-terminal peptide, phosphorylated on S240 and isoprenylated (+P+Ipr) (human); assay: as above
hexa-His-tagged 14-3-3ζ = target: T2, hexa-His-tagged 14-3-3ζ (UniProt P63104 1-245); assay: BLI; Octet RED96; biotinylated peptides immobilised on streptavidin-coated biosensors (1 μg/ml, 300 s); dilution series of 14-3-3ζ for 300 s, dissociation 300 s; BI buffer 25 mM Tris, 150 mM NaCl, 0.1% Tween-20; data of a typical experiment (n ≥ 3); settings: both partners purified
T2 construct: 14-3-3 protein zeta; expressed and purified essentially as in Kostelecky et al., 2009; eluted as a dimer of ~60 kDa; the ITC methods call it 'the 14-3-3ζ domain'; source: E. coli BL21(DE3) Star, purified (HisTrap, size-exclusion chromatography)
T2 sequence: T1 sequence (P63104 1-245)

Question: Which results are given for `CC(C)C[C@H](NC(=O)[C@@H](N)CC(=O)O)C(=O)N[C@@H](CCCNC(=N)N)C(=O)N[C@@H](CCCCN)C(=O)N[C@@H](CC(=O)O)C(=O)N[C@@H](CCCCN)C(=O)N[C@@H](C)C(=O)N[C@@H](CCCCN)C(=O)N[C@@H](COP(=O)(O)O)C(=O)N[C@@H](CS)C(=O)O` [+P-F] (H-DLRKDKAK[pS]C-OH)?
Answer: Kd (14-3-3ζ [1]): 1300 nM; inhibition of the interaction between GST-14-3-3β and Rnd3 [2]: only slightly inhibited; Kd (14-3-3ζ [3]; 25°C, 50 mM Tris pH 7.5, 100 mM NaCl, 1 mM TCEP, one-site model, mean ± SD, n = 3): 1060 ± 40 nM; Stoichiometry (N) (14-3-3ζ [3]; 25°C, 14-3-3ζ 50–60 μM, peptide 500–600 μM, 50 mM Tris pH 7.5, 100 mM NaCl, 1 mM TCEP, one-site model, mean ± SD, n = 3): 0.89 ± 0.017; TΔS (14-3-3ζ [3]; 25°C, mean ± SD, n = 3): 2.469 ± 0.231 kcal/mol; ΔG (14-3-3ζ [3]; 25°C, mean ± SD, n = 3): -8.152 ± 0.027 kcal/mol; ΔH (14-3-3ζ [3]; 25°C, mean ± SD, n = 3): -5.683 ± 0.204 kcal/mol; N (printed in Figure 5C) (14-3-3ζ [3]; fitted curve of Figure 5C): 0.89

Question: How did the “effect on Rnd3/14-3-3 interaction” value (Rnd3/14-3-3 interaction) turn out when `COC[C@@H]([C@H](O)[C@H](O)C(=O)NCC[C@H](C)c1nc(/C=C/C[C@@H]2O[C@]3(C[C@@H](O)[C@@H]2C)O[C@H]([C@H](C[C@H](O)[C@H](C)[C@H](O)[C@H](C)/C=C(C)/C(C)=C/C=C/C(C)=C\C#N)OC)[C@H](OP(=O)(O)O)C3(C)C)co1)N(C)C` [calyculin A] was run?
Answer: increased

Question: `CC[C@H](C)[C@@H](CO[C@@H](Cc1ccccc1)C(=O)N[C@@H](CCS(C)(=O)=O)C(=O)OC(C)C)NC[C@@H](N)CS` [FTI, L-744,832] was tested. Which “effect on Rnd3/14-3-3 interaction” value (Rnd3/14-3-3 interaction) did it give?
Answer: prevented

Question: `CCCCCCCCCCCCCC(=O)O[C@@H]1[C@@H](C)[C@@]2(O)[C@@H](C=C(CO)C[C@]3(O)C(=O)C(C)=C[C@@H]23)[C@@H]2C(C)(C)[C@]12OC(C)=O` [PMA, phorbol-12-myristate-13-acetate] was tested. Which “effect on pS210-Rnd3” value (pS210-Rnd3) did it give?
Answer: increase

Question: `CN(C)CCCn1cc(C2=C(c3c[nH]c4ccccc34)C(=O)NC2=O)c2ccccc21` [BIM1, bisindolylmaleimide I] was tested. Which “effect on pS210-Rnd3” value (pS210-Rnd3) did it give?
Answer: reduced

Question: For `CN[C@@H]1C[C@H]2O[C@@](C)([C@@H]1OC)n1c3ccccc3c3c4c(c5c6ccccc6n2c5c31)C(=O)NC4` [staurosporine], which “effect on Rnd3/14-3-3 interaction” value (Rnd3/14-3-3 interaction) is on record?
Answer: reduced

Question: For “hexa-His-tagged 14-3-3ζ (from UniProt P63104 1-245) (natural protein)”, which Kd [4] is on record?
Answer: 23.2 nM

Question: What about the koff [4] of the same molecule?
Answer: 0.021 s⁻¹

Question: What about the kon [4] of the same molecule?
Answer: 890000 M⁻¹ s⁻¹

Question: What about the Kd [5] of the same molecule?
Answer: 1300 nM

Question: What about the Kd [6] of the same molecule?
Answer: 56.5 nM

Question: What about the koff [6] of the same molecule?
Answer: 0.032 s⁻¹

Question: And the kon [6]?
Answer: 570000 M⁻¹ s⁻¹

Question: And the Kd [7]?
Answer: 32.4 nM

Question: What about the koff [7] of the same molecule?
Answer: 0.028 s⁻¹

Question: What about the kon [7] of the same molecule?
Answer: 860000 M⁻¹ s⁻¹

Question: What about the Kd [8] of the same molecule?
Answer: 556 nM

Question: What about the koff [8] of the same molecule?
Answer: 0.13 s⁻¹

Question: And the kon [8]?
Answer: 240000 M⁻¹ s⁻¹

Question: For “N-CDRSKpSAPTS-C [PKC, reference compound]”, which “inhibition of the interaction between GST-14-3-3β and Rnd3” value [2] is on record?
Answer: inhibited

B1: Rap1A C-terminal peptide, phosphorylated, not geranylgeranylated (biotinylated) (peptide)
peptide: EKKKPKKK[pS]C
modifications: not fully specified (N-terminus); also: biotinylated
notes: Rap1A C-terminal peptide as Dm2 but without the geranylgeranyl modification; also called Rap1A+P-GG; nonmodified phosphopeptide; source: synthetic peptide
Question: Which Kd (hexa-His-tagged 14-3-3ζ) does the source give for B1 here?
Answer: > 1000 nM
